Data reported in patent publication US20180332847A1, “ANTIMICROBIAL METAL CARBOXYLATE-BENZISOTHIAZOLINONE MIXTURES” (Troy Corporation, priority 2017, published 2018).
Where two headings read alike, the source gives them in different places.

Experiments:
[1] = tested on: Candida albicans; assay: Minimum Inhibitory Concentration (MIC) by spiral plater / spiral gradient endpoint against Candida albicans; format: cell-based; conditions: for QA: used for SI; for MIC (ppm) for Candida albicans: 3 1:3, 4,5 1:1, 6 3:1, 7,8 1:0
Description: (§1) Synergistic Index=Qa/QA+Qb/QB [Equation No. 1] • where Qa=the quantity of component A used in a binary mixture that gives the desired effect • QA=the quantity of component A which when used alone gives the desired effect • Qb=the quantity of component B used in a binary mixture that gives the desired effect • QB=the quantity of component B which when used alone gives the desired effect
(§2) Minimum Inhibitory Concentration (“MIC”) for each of the antimicrobial compositions was determined against a test microbe, which in this case was a spore suspension of the fungus Alternaria alternata, with the aid of an Autoplate 4000 spiral plater that is commercially available from Spiral Biotech, Inc., Norwood, Mass., and its accompanying spiral gradient endpoint software (hereinafter referred to as “the SGE software”). The spiral plater automates the normal serial dilution method for determining MICs. Although the details of the SGE software are held confidentially by Spiral Biotech, Inc., they are believed to consistent with the principles set forth in “Measurement of MICs of antibacterial agents by spiral gradient endpoint compared with conventional dilution method” J. H. Paton, H. A. Holt, and M. J. Bywater—Int. J. Exp. Clin. Chemother, 1990.
(§3) The spiral plater automatically applied 54.3 micro-liters of each antimicrobial composition of interest to the surface of 150 millimeter malt agar plates using an exponential application gradient. The concentration of the antimicrobial concentration was greatest near the center of the Petri plates and decreased toward the edges. Antimicrobial composition gradients were allowed to air dry at room temperature for 1 to 4 hours at 23° C. before inoculation with test microbe. Spiral gradient plates were inoculated by streaking with cotton swabs that had been soaked in test microbe spore suspension. Streaks were applied in a radial pattern, using a paper template generated by the SGE software to guide the application. Eight radii were inoculated per Petri plate. Each radius is considered as one replicated observation.
(§4) Inoculated spiral gradient plates were incubated for 48 hours in an incubator at 28° C. Visible growth of the test microbe developed along the radial streaks and ended where the concentration of the antimicrobial composition was sufficient to prevent growth. This growth endpoint value (expressed in mm as measured from center point of the Petri plate) was used to calculate MIC for the mixture, expressed as parts per million.
Utilizing the procedure described above in Example, Minimum Inhibitory Concentration (“MIC”) for each of the antimicrobial compositions was determined against a test microbe, which in this case was a spore suspension of the yeast Candida albicans., as described above in Example 1. Several antimicrobial compositions containing calcium gluconate, BIT, or both in water were investigated, as shown below in Table 3
Utilizing the procedure described above in Example 1, Minimum Inhibitory Concentration (“MIC”) for each of the antimicrobial compositions was determined against a test microbe, which in this case was a spore suspension of the yeast Candida albicans. Several antimicrobial compositions containing calcium glycerate, BIT, or both in water were investigated, as shown below in Table 11.
Utilizing the procedure described above in Example 1, Minimum Inhibitory Concentration (“MIC”) for antimicrobial compositions was determined against a test microbe, which in this case was a spore suspension of the yeast Candida albicans. Several antimicrobial compositions containing calcium glycerate, BIT, or both in water were investigated, as shown below in Table 23.
Utilizing the procedure described above in Example 1, Minimum Inhibitory Concentration (“MIC”) for each of the antimicrobial compositions was determined against a test microbe, which in this case was a spore suspension of the fungus Candida Albicans.

[2] = tested on: Alternaria alternata; assay: Minimum Inhibitory Concentration (MIC) by spiral plater / spiral gradient endpoint against Alternaria alternata; format: cell-based
Description: as §1, §2
Spore suspensions for the test microbe were prepared by growing Alternaria alternata on a Difco malt agar slant in an incubator for 1 week at 28° C. Spores were loosened by adding a small amount of buffer solution at pH 7.0 and scraping with a sterile nichrome wire loop. This process was repeated twice. The buffer solution included phosphate buffer and magnesium chloride, and was obtained commercially from Thomas Scientific Company, as Lot #023-0703.
Loosened spores were removed from the slant by aseptically pouring them into a sterile bottle containing 30 ml of the buffer solution and a volume of approximately 40 ml of 6 mm diameter borosilicate glass beads. The bead bottle was shaken to disperse the spores and adjusted to a final liquid volume of 50 ml. For use as a test inoculum, spore density was adjusted in distilled water blanks to that of a 0.5 McFarland nephelometer standard.
as §3, §4
Utilizing the procedure described above in Example 1, Minimum Inhibitory Concentration (“MIC”) for each of the antimicrobial compositions was determined against a test microbe, which in this case was a spore suspension of the […] Alternaria alternata.

[3] = tested on: Klebsiella pneumoniae; assay: Minimum Inhibitory Concentration (MIC) by spiral plater / spiral gradient endpoint against Klebsiella pneumoniae; format: cell-based; conditions: quantity of calcium ethylhexanoate used alone that gives the desired effect
Description: as §1
(§5) Minimum Inhibitory Concentration (“MIC”) for each of the antimicrobial compositions was determined against a test microbe, which in this case was a spore suspension of the fungus Alternaria alternata, with the aid of an Autoplate 4000 spiral plater that is commercially available from Spiral Biotech, Inc., Norwood, Mass., and its accompanying spiral gradient endpoint software (hereinafter referred to as “the SGE software”). […]
(§6) Inoculated spiral gradient plates were incubated for 48 hours in an incubator at 28° C. […] This growth endpoint value (expressed in mm as measured from center point of the Petri plate) was used to calculate MIC for the mixture, expressed as parts per million.
Utilizing the procedure described above in Example 1, Minimum Inhibitory Concentration (“MIC”) for each of the antimicrobial compositions was determined against a test microbe, which in this case was a spore suspension of the bacteria Klebsiella pneumoniae. […]

[4] = tested on: mixed bacterial inoculum: Pseudomonas aeruginosa (ATCC #10145), Escherichia coli (ATCC #11229), Enterobacter aerogenes (ATCC #13048), Alcaligenes faecalis …; assay: Two-part bacterial challenge of acrylic latex paint samples with a mixed inoculum (performance ratings); format: cell-based; set-up: key to Performance Ratings Week 1, 1 Day / Performance Ratings Week 1, 2 Days / Performance Ratings Week 1, 8 Days / Performance Ratings Week 2, 1 Day / Performance Ratings Week 2, 2 Days / Performance Ratings Week 2, 8 Days: 0: No bacterial growth; 1: Trace of bacterial growth; 2: Light bacterial growth; 3: Moderate bacterial growth; 4: Heavy bacterial growth
Description: In order to quantify the antibacterial effectiveness of an antimicrobial composition of interest, samples were prepared by adding various amounts of the antimicrobial composition to identical volumes of a paint that contained no preservatives and was not contaminated by bacteria. In this case, the test sample was a white, aqueous-based, acrylic latex paint. The paint included an acrylic resin, and conventional additives such as surfactant, thickener, defoamer, and titanium oxide.
The samples of the paint were subjected to a two-part challenge procedure and the sample that provided acceptable anti-bacterial protection with the lowest concentration of the antimicrobial composition was identified. Each part of the anti-bacterial challenge consisted of a 7-day test cycle. The parts were performed consecutively over 14 test days.
Challenge testing was accomplished using a mixed bacterial inoculum as the contamination event. These bacteria are Pseudomonas aeruginosa (ATCC #10145), Escherichia coli (ATCC #11229), Enterobacter aerogenes (ATCC #13048), and Alcaligenes faecalis (ATCC #25094). To prepare the test inoculum, each type of bacteria was harvested separately in nutrient broth. Just before use in the challenge test, equal strengths of each bacterial culture were mixed to obtain an inoculum of approximately 10^8 colony forming units per milliliter (cfu/mL).
After incubation, both control blanks and samples containing preservatives of interest were inoculated with the mixed inoculum to a final of 1.0 weight %. […]
Performance ratings of 0, 1, 2, 3 or 4 for each inoculated paint sample were determined by visual inspection of the streak lines, according to the definitions set forth below in Table 25.

[5] = tested on: Escherichia coli; assay: Minimum Inhibitory Concentration (MIC) by spiral plater / spiral gradient endpoint against Escherichia coli; format: cell-based; conditions: MIC of zinc gluconate alone for Escherichia coli (average of Trials 7, 8), used for SI
Description: as §1, §2
The spiral plater automatically applied 54.3 micro-liters of each antimicrobial composition of interest to the surface of 150 millimeter malt agar plates using an exponential application gradient. The concentration of the antimicrobial concentration was greatest near the center of the Petri plates and decreased toward the edges. […]
as §6
Utilizing the experimental procedure described above in Example 1, the MIC against Escherichia coli of several antibacterial compositions containing zinc gluconate, BIT, or both in water were determined.

[6] = tested on: Saccharomyces cervisiae; assay: Minimum Inhibitory Concentration (MIC) by spiral plater / spiral gradient endpoint against Saccharomyces cervisiae; format: cell-based; conditions: aqueous calcium gluconate-BIT compositions; MassCG:MassBIT: Trials 1,2 0:1; 3 1:3; 4,5 1:1; 6 3:1; 7,8 1:0
Description: as §1, §5, §6
Utilizing the procedure described above in Example 1, Minimum Inhibitory Concentration (“MIC”) for each of the antimicrobial compositions was determined against a test microbe, which in this case was a spore suspension of the yeast Saccharomyces cervisiae. […]

[7] = tested on: Pseudomonas aeruginosa; assay: Minimum Inhibitory Concentration (MIC) by spiral plater / spiral gradient endpoint against Pseudomonas aeruginosa; format: cell-based; conditions: 3 1:3, 4,5 1:1, 6 3:1, 7,8 1:0
Description: as §1, §2, §3, §4
Utilizing the procedure described above in Example 1, Minimum Inhibitory Concentration (“MIC”) for each of the antimicrobial compositions was determined against a test microbe, which in this case was a spore suspension of the bacterium Pseudomonas aeruginosa. Several antimicrobial compositions containing calcium gluconate, BIT, or both in water were investigated, as shown below in Table 7.
Utilizing the procedure described above in Example 1, Minimum Inhibitory Concentration (“MIC”) for each of the antimicrobial compositions was determined against a test microbe, which in this case was a […] Pseudomonas aeruginosa. Several antimicrobial compositions containing calcium glycerate, BIT, or both in water were investigated, as shown below in Table 13.
Utilizing the procedure described above in Example 1, Minimum Inhibitory Concentration (“MIC”) of certain antimicrobial compositions was determined against a test microbe, which in this case was a spore suspension of the bacterium Pseudomonas aeruginosa. Several antimicrobial compositions containing zinc gluconate, BIT, or both in water were investigated, as shown below in Table 19.

[8] = ingredient added at 1 mass % based on total mass of paint
Description: Zinc chloride, zinc formate and zinc acetate were added to the acrylic paint formulation.

[9] = tested on: Staphylococcus aureus; assay: Minimum Inhibitory Concentration (MIC) by spiral plater / spiral gradient endpoint against Staphylococcus aureus; format: cell-based
[10] = aqueous calcium gluconate-BIT compositions, MassCG:MassBIT: Trials 1,2 0:1
[11] = aqueous calcium glycerate-BIT compositions, MassCGLY:MassBIT: Trials 1,2 0:1
[12] = zinc glycerate (without BIT), zinc glycerate-BIT series

zinc ethylhexanoate
QA ([1]; MIC of zinc ethylhexanoate alone for Candida albicans): >780 ppm
QA ([2]; MIC of zinc ethylhexanoate alone for Alternaria alternata, used for SI): >780 ppm
amount required to prevent growth of Alternaria alternata (MIC) ([2]; zinc ethylhexanoate (without BIT), average of two trials): > 780 ppm

calcium ethylhexanoate
QA ([2]; quantity of calcium ethylhexanoate used alone that gives the desired effect (average of two trials), Alternaria alternata): 7.5 ppm
QA [3]: 7.5 ppm

zinc gluconate
Performance Ratings Week 1, 1 Day ([4]; 5000 ppm in acrylic latex paint, Week 1, 1 Day after inoculation): 4
Performance Ratings Week 1, 2 Days ([4]; 5000 ppm in acrylic latex paint, Week 1, 2 Days after inoculation): 4
Performance Ratings Week 1, 8 Days ([4]; 5000 ppm in acrylic latex paint, Week 1, 8 Days after inoculation): 4
Performance Ratings Week 2, 1 Day ([4]; 5000 ppm in acrylic latex paint, Week 2, 1 Day after inoculation): 4
Performance Ratings Week 2, 2 Days ([4]; 5000 ppm in acrylic latex paint, Week 2, 2 Days after inoculation): 4
Performance Ratings Week 2, 8 Days ([4]; 5000 ppm in acrylic latex paint, Week 2, 8 Days after inoculation): 4
bacterial stability test ([4]; conventional latex paint with 5000 ppm of zinc gluconate added, mixed inoculum, two 7-day cycles): fails
QA [5]: 565 ppm

calcium gluconate
MIC (ppm) for Saccharomyces cervisiae [6]: > 768 ppm
MIC (ppm) for Candida albicans [1, 10]: > 768 ppm
MIC (ppm) for Pseudomonas aeruginosa [7, 10]: > 1127 ppm
MIC (ppm) for Pseudomonas aeruginosa ([7]; aqueous zinc gluconate-BIT compositions, MassZG:MassBIT: Trials 1,2 0:1): > 2300 ppm

O=C[O-].O=C[O-].[Zn+2] [Zinc formate]
Observation (viscosity of conventional acrylic paint) [8]: Paint gelled immediately
Observation (viscosity of conventional acrylic paint) ([8]; listed as zinc formate): caused the paint to gel

CC(=O)[O-].CC(=O)[O-].[Zn+2] [Zinc acetate]
Observation (viscosity of conventional acrylic paint) [8]: Paint gelled after mixing for
Observation (viscosity of conventional acrylic paint) ([8]; listed as zinc acetate): caused the paint to gel

calcium glycerate
MIC (ppm) for Candida albicans [1, 11]: > 768 ppm
MIC (ppm) for Pseudomonas aeruginosa [7, 11]: > 1230 ppm
MIC (ppm) for Alternaria alternata ([2]; aqueous calcium glycerate-BIT compositions, MassCGLY:MassBIT: Trials 1,2 0:1, 3 1:3, 4,5 1:1, 6 3:1, 7,8 1:0): > 788 ppm

zinc glycerate
QA ([1]; MIC of zinc glycerate alone for Candida albicans): >768 ppm
MIC for Candida albicans ([1]; metal carboxylate without BIT, zinc ethylhexanoate-BIT series (Example 16, Table 31)): > 780 ppm
MIC for Candida albicans [1, 12]: > 768 ppm
QA ([2]; MIC of zinc glycerate alone for Alternaria alternata, used for SI): >788 ppm
MIC for Alternaria alternata [2, 12]: > 768 ppm
QA ([9]; MIC of zinc glycerate alone for Staphylococcus aureus, used for SI): >1283 ppm
MIC for Staphylococcus aureus [9, 12]: > 768 ppm

[Cl-].[Cl-].[Zn+2] [Zinc chloride]
Observation (viscosity of conventional acrylic paint) [8]: Paint gelled immediately
Observation (viscosity of conventional acrylic paint) ([8]; listed as zinc chloride): caused the paint to gel
